Measurements as given in US11559510B2, “Isoflavonoid composition with improved pharmacokinetics” (NOXOPHARM LIMITED, priority 2016, dated 2023).

Columns and labels:
[1] = cited from earlier work
[2] = Extrapolation of rat rectal plasma levels to humans on a body surface area basis; details: extrapolated from rat rectal data
Procedure: In this study, idronoxil was given to rats at a dose of 10 mg/kg body weight, yielding a plasma concentration of about 35 to 40 ng/mL up to 8 hours from a single rectal administration. This dosage equates (on a body surface area basis) to a dose in humans of about 2 mg/kg BW. Thus, a blood level range of 20-400 ng/mL could be achieved in humans with a dosage range of 1-20 mg/kg BW, and the preferred range of 80-160 ng/mL with a dosage range of 4-8 mg/kg BW.

Oc1ccc(C2=Cc3ccc(O)cc3OC2)cc1 [Idronoxil, 2H-1-Benzopyran-7-0,1,3-(4-hydroxyphenyl)]
plasma elimination half-life ([1]; bolus IV administration): short | time after administration at which free idronoxil is detected in plasma ([1]; given orally, most patients): ≤ 30 min | absolute oral bioavailability ([1]; given orally): low | blood levels readily attained ([1]; humans treated both orally and intravenously): 50 µM | blood level range that could be achieved in humans ([2]; dosage range of 1-20 mg/kg BW): 20 to 400 ng/mL | blood level range that could be achieved in humans ([2]; dosage range of 4-8 mg/kg BW): 80 to 160 ng/mL
